{
  "source": "patent US20090137662A1",
  "about": "“SYNERGY OF DOPAMINE D2 AND ADENOSINE A2 RECEPTORS ACTIVATES PKA SIGNALING VIA BETA/GAMMA DIMERS” (The Regents of the University of California, priority 2002, published 2009)",
  "key": {"ε-PKC [1]": {"system": "ε-PKC", "assay": "Translocation of ε-PKC in NG108-15 and CHO cells expressing the applicable receptor", "format": "cell-based", "excerpt": "(§1) To determine whether addictive drugs other than ethanol would cause translocation of some proteins, we examine the effects of various receptor agonists and antagonists on ε-PKC δ-PKC or PKA Cα translocation in NG108-15 and CHO cells expressing the applicable receptor. […] Adenosine is also implicated in some behavioral effects of ethanol.\n(§2) The mechanisms underlying ethanol- and dopamine-mediated translocation of ε-PKC and δ-PKC were studied by altering the activity of various molecules that might be in the pathways leading to translocation."}, "[2]": {"system": "CRE-regulated luciferase expression", "assay": "CRE-luciferase reporter in NG108-15 cells", "format": "cell-based", "method": "Luciferase is used as a reporter gene in a transient expression system to identify substances that alter the effects of ethanol on CRE-regulated gene expression. Cells are cultured as described in Dohrman et al., Proc Natl Acad Sci USA (1996) 93:10217-10221, and are transfected using Effectene (Qiagene) as described by the manufacturers. Twenty-four hours after transfection the cells are treated with 200 mM ethanol for 30 min. to 36 hr. Luciferase activity is measured using Luciferase Assay System (Promega) and normalized to β-galactosidase activity.\n(§3) NG108-15 cells were co-transfected with a fusion construct containing the cAMP response element (CRE) fused to luciferase as a reporter gene (Stratagene).\nSince the ERK/MAPK pathway may regulate CREB phosphorylation and CRE-mediated gene expression, NG108-15 cells having the luciferase construct were co-incubated with 200 mM ethanol and a MEK inhibitor (PD98059 (2 nM, Calbiochem, San Diego, Calif.) or U0126 (1 μM, Calbiochem, San Diego, Calif.)) or a dominant negative MEK construct (DN-MEK, Dr. R. Seger) in which Lys-97 was replaced by alanine.\nas §3"}, "PKA Cα [3]": {"system": "PKA Cα", "format": "cell-based", "conditions": "for translocation of PKA-Cα after co-incubation with NPA: 10 minute co-incubation with 10^−10M NPA, 10^−11M DADLE or 2×10^−10M methanindamide", "excerpt": "as §1"}, "PKA Cα [4]": {"system": "PKA Cα", "assay": "PKA Cα translocation in primary cultures of hippocampal neurons", "conditions": "for effect of agent alone on PKA Cα localization: data not shown"}, "ε-PKC [5]": {"system": "ε-PKC", "format": "cell-based", "method": "NG 108-15 or CHO cells were pre-incubated in the presence or absence of the indicated inhibitor for 30 min. (except for GF which was pre-incubated for 1 hour), then further incubated in the absence or presence of 200 mM ethanol for 30 min."}, "δ-PKC [6]": {"system": "δ-PKC", "format": "cell-based", "conditions": "naive NG108-15 cells; 100 nM PMA, 10 min.", "method": "(§4) Naive NG108-15 cells were, therefore, incubated in for ten (10) min. in 100 nM PMA, to then determine localization of δ-PKC and ε-PKC."}, "ε-PKC [7]": {"system": "ε-PKC", "format": "cell-based", "conditions": "naive NG108-15 cells; 100 nM PMA, 10 min.", "method": "as §4"}, "δ-PKC [8]": {"system": "δ-PKC", "assay": "Translocation of δ-PKC in NG108-15 and CHO cells expressing the applicable receptor", "format": "cell-based", "conditions": "PKA agonist Sp-cAMPS, or forskolin or PGE1 to increase cAMP levels", "excerpt": "as §1, §2"}, "[9]": {"conditions": "NG108-15 cells expressing the applicable receptor, 200 mM Ethanol, 50 nM NPA, 1 μM D-ala-D-leu-enkephalin, 2 μM R(+) methanindamide, 20 μM Carbachol, 10^−5 M UK14304, 20 nM CCPA, 100 nM CGS-21680 HCl, None: Perinucleus"}, "[10]": {"conditions": "CHO cells expressing the dopamine D2 receptor"}, "[11]": {"conditions": "NG108-15 cells expressing the dopamine D2 receptor"}, "[12]": {"conditions": "NG108-15 cells, H-89 10 μM, PD98059 2 nM, U0126 1 μM, DN-RIα, DN-MEK, CREB-M1 constructs co-transfected"}},
  "note": "Where a name gives a salt, the structure may show the parent alone. Read-outs that look alike come from different tables or passages of the source.",
  "data": [
    {"smiles": "OC[C@H]1O[C@@H](n2cnc3c(NC4CCCC4)nc(Cl)nc32)[C@H](O)[C@@H]1O", "note": "[CCPA, 2-chloro-N^6-cyclopentyladenosine]", "values": [
      {"measurement": "Predominant Localization of ε-PKC (agent alone)", "setting": "ε-PKC [1]; [9]", "value": "Cytoplasm"}
    ]},
    {"smiles": "CCNC(=O)[C@H]1O[C@@H](n2cnc3c(N)nc(NCCc4ccc(CCC(=O)O)cc4)nc32)[C@H](O)[C@@H]1O", "note": "[CGS-21680 HCl]", "values": [
      {"measurement": "Predominant Localization of ε-PKC (agent alone)", "setting": "ε-PKC [1]; [9]", "value": "Cytoplasm"}
    ]},
    {"smiles": "C[N+](C)(C)CCOC(N)=O", "note": "[Carbachol]", "values": [
      {"measurement": "Predominant Localization of ε-PKC (agent alone)", "setting": "ε-PKC [1]; [9]", "value": "Perinucleus"}
    ]},
    {"smiles": "CC(C)C[C@@H](NC(=O)[C@H](Cc1ccccc1)NC(=O)CNC(=O)[C@@H](C)NC(=O)[C@@H](N)Cc1ccc(O)cc1)C(=O)O", "note": "[DADLE, enkephalin (D-ala2,D-leu5)]", "values": [
      {"measurement": "Predominant Localization of ε-PKC (agent alone)", "setting": "ε-PKC [1]", "value": "Cytoplasm"},
      {"measurement": "increase in luciferase expression", "setting": "[2]; NG108-15 cells, 10 nM DADLE, four hours", "value": 40, "unit": "%"},
      {"measurement": "translocation of PKA-Cα after co-incubation with ethanol", "setting": "PKA Cα [3]", "value": "Synergistic translocation"},
      {"measurement": "translocation of PKA-Cα after co-incubation with NPA", "setting": "PKA Cα [3]", "value": "Synergistic translocation"},
      {"measurement": "translocation of PKA-Cα after co-incubation of δ-opioid and cannabinoid", "setting": "PKA Cα [3]; 10 minute coincubation of 10^−11M DADLE and 2×10^−10M methanindamide", "value": "did not result in synergistic translocation"}
    ]},
    {"smiles": "C#CCn1c(=O)c2c(ncn2C)n(C)c1=O", "note": "[DMPX]", "values": [
      {"measurement": "effect on NPA-induced PKA Cα translocation", "setting": "PKA Cα [4]; primary hippocampal neurons, 50 nM NPA, spiperone 10 μM, DPCPX 100 nM, DMPX 10 μM 30 min, Rp-cAMPS 20 μM 1.5 hours, PTX 50 ng/ml or Ad5QEHA overnight", "value": "do not affect"},
      {"measurement": "effect of agent alone on PKA Cα localization", "setting": "PKA Cα [4]; primary hippocampal neurons", "value": "no effect"}
    ]},
    {"smiles": "CCCn1c(=O)c2[nH]c(C3CCCC3)nc2n(CCC)c1=O", "note": "[DPCPX]", "values": [
      {"measurement": "effect on NPA-induced PKA Cα translocation", "setting": "PKA Cα [4]", "value": "do not affect"},
      {"measurement": "effect on ethanol-induced PKA Cα translocation", "setting": "PKA Cα [4]", "value": "prevents"},
      {"measurement": "effect of agent alone on PKA Cα localization", "setting": "PKA Cα [4]; primary hippocampal neurons", "value": "no effect"}
    ]},
    {"smiles": "CCCCCCCCCCCCCCCCCCOCC(COP(=O)([O-])OCC[N+](C)(C)C)OC", "note": "(centres unmarked) [Et-18-OCH3]", "values": [
      {"measurement": "Predominant ε-PKC Localization (ethanol + inhibitor)", "setting": "ε-PKC [5]", "value": "Perinucleus"},
      {"measurement": "inhibition of ethanol-induced translocation of ε-PKC", "setting": "ε-PKC [1]; [10]", "value": 87, "unit": "%"},
      {"measurement": "inhibition of ethanol-induced translocation of ε-PKC", "setting": "ε-PKC [1]; [11]", "value": 96, "unit": "%"}
    ]},
    {"smiles": "CN(C)CCCn1cc(C2=C(c3c[nH]c4ccccc34)C(=O)NC2=O)c2ccccc21", "note": "[GF, Bisindoylmaleimide I]", "values": [
      {"measurement": "Predominant ε-PKC Localization (ethanol + inhibitor)", "setting": "ε-PKC [5]", "value": "Perinucleus"}
    ]},
    {"smiles": "O=S(=O)(NCCNC/C=C/c1ccc(Br)cc1)c1cccc2cnccc12", "note": "[H-89]", "values": [
      {"measurement": "effect on the increase in luciferase expression after 14 hours of exposure to 200 mM ethanol", "setting": "[2]; [12]", "value": "inhibit the increase in luciferase expression"}
    ]},
    {"smiles": "Cl.c1ccc([C@@H]2CCC[C@@H]2NC2=NCCCCCCCCCCC2)cc1", "note": "[MDL 12, 330A Hydrochloride]", "values": [
      {"measurement": "Predominant ε-PKC Localization (ethanol + inhibitor)", "setting": "ε-PKC [5]", "value": "Perinucleus"}
    ]},
    {"smiles": "COc1cccc(-c2cc(=O)c3ccccc3o2)c1N", "note": "[PD98059]", "values": [
      {"measurement": "effect on the increase in luciferase expression after 14 hours of exposure to 200 mM ethanol", "setting": "[2]; [12]", "value": "eliminated the increase in luciferase activity"}
    ]},
    {"smiles": "CCCCCCCCCCCCCC(=O)O[C@@H]1[C@@H](C)[C@@]2(O)[C@@H](C=C(CO)C[C@]3(O)C(=O)C(C)=C[C@@H]23)[C@@H]2C(C)(C)[C@]12OC(C)=O", "note": "[PMA, phorbol myristate acetate]", "values": [
      {"measurement": "localization of δ-PKC on activation by PMA", "setting": "δ-PKC [6]", "value": "mainly translocated to the perinucleus"},
      {"measurement": "localization of ε-PKC on activation by PMA", "setting": "ε-PKC [7]", "value": "nuclear and perinuclear localization"}
    ]},
    {"smiles": "CCCCC/C=C\\C/C=C\\C/C=C\\C/C=C\\CCCC(=O)N[C@H](C)CO", "note": "[R(+) methanindamide]", "values": [
      {"measurement": "Predominant Localization of ε-PKC (agent alone)", "setting": "ε-PKC [1]", "value": "Cytoplasm"},
      {"measurement": "translocation of PKA-Cα after co-incubation with ethanol", "setting": "PKA Cα [3]", "value": "Synergistic translocation"},
      {"measurement": "translocation of PKA-Cα after co-incubation with NPA", "setting": "PKA Cα [3]", "value": "Synergistic translocation"}
    ]},
    {"smiles": "Nc1ncnc2c1ncn2[C@@H]1O[C@@H]2COP(O)(=S)O[C@H]2[C@H]1O", "note": "(some centres unmarked) [Sp-cAMPS]", "values": [
      {"measurement": "translocation of ε PKC on activation of PKA", "setting": "ε-PKC [1]; PKA agonist Sp-cAMPS, or forskolin or PGE1 to increase cAMP levels", "value": "translocate to the cytoplasm"},
      {"measurement": "translocation of δ PKC on activation of PKA", "setting": "δ-PKC [8]", "value": "did not induce translocation"}
    ]},
    {"smiles": "N#CC(=C(/N)Sc1ccccc1N)/C(C#N)=C(\\N)Sc1ccccc1N", "note": "[U0126]", "values": [
      {"measurement": "effect on the increase in luciferase expression after 14 hours of exposure to 200 mM ethanol", "setting": "[2]", "value": "eliminated the increase in luciferase activity"}
    ]},
    {"smiles": "COc1ccc2c(c1)CC[C@@H]1[C@@H]2CC[C@]2(C)[C@@H](NCCCCCCN3C(=O)C=CC3=O)CC[C@@H]12", "note": "[U 73122]", "values": [
      {"measurement": "Predominant ε-PKC Localization (ethanol + inhibitor)", "setting": "ε-PKC [5]", "value": "Perinucleus"},
      {"measurement": "inhibition of ethanol-induced translocation of ε-PKC", "setting": "ε-PKC [1]; [10]", "value": 87, "unit": "%"},
      {"measurement": "inhibition of ethanol-induced translocation of ε-PKC", "setting": "ε-PKC [1]; [11]", "value": 84, "unit": "%"}
    ]},
    {"smiles": "Brc1c(NC2=NCCN2)ccc2nccnc12", "note": "[UK14304]", "values": [
      {"measurement": "Predominant Localization of ε-PKC (agent alone)", "setting": "ε-PKC [1]; [9]", "value": "Perinucleus"}
    ]}
  ]
}
